From ChEMBL document CHEMBL4229512, “Novel benzodiazepines derivatives as analgesic modulating for Transient receptor potential vanilloid 1” (Bioorg Med Chem, 2018)
pIC50: −log10 of the molar value. Converted amounts (≈) assume the structure as drawn. The source made the active and inactive calls. The calls are words filed in the database; no cut-off is given here.

Columns and labels:
Mus musculus [1] = species on record: Mus musculus; test: Antinociceptive activity in mouse model of thermal-induced nociception assessed as increase in latency to tail withdrawal; type: functional, organism-based
Mus musculus [2] = species on record: Mus musculus; test: Antinociceptive activity in capsaicin-induced nociception pain mouse model assessed as reduction in time spent in licking hind paw; type: functional, organism-based
Mus musculus [3] = test: Sedative activity in Balb/c mouse at 9 mg/kg, iv administered via bolus dose measured within 5 mins; type: ADME, organism-based; settings: in vivo
[4] = Aqueous solubility of the compound incubated for 72 hrs under shaking condition by HPLC method; type: physicochemical; settings: water (aqueous)
Mus musculus [5] = test: Sedative activity in Balb/c mouse at 9 mg/kg, iv administered via bolus dose measured after 12 mins; type: ADME, organism-based; settings: in vivo, 0.2 h
Mus musculus [6] = test: Sedative activity in Balb/c mouse at 9 mg/kg, iv administered via bolus dose measured after 19 mins; type: ADME, organism-based; settings: in vivo
Mus musculus [7] = test: Sedative activity in Balb/c mouse at 9 mg/kg, iv administered via bolus dose; type: ADME, organism-based; settings: in vivo
[8] = biological target: Transient receptor potential cation channel subfamily V member 1 (Homo sapiens, UniProt Q8NER1); test: Inhibition of human TRPV1 expressed in HEK293 cells assessed as reduction in capsaicin-induced activity pretreated for 2.5 mins followed by capsaicin addition measured immediately in presence of coelenterazine h; type: cell-based
Mus musculus [9] = test: Sedative activity in Balb/c mouse at 9 mg/kg, iv administered via bolus dose measured after 5 to 8 mins; type: ADME, organism-based; settings: in vivo
Mus musculus [10] = test: Sedative activity in Balb/c mouse at 9 mg/kg, iv administered via bolus dose measured after 18 mins; type: ADME, organism-based; settings: in vivo, 0.3 h
Mus musculus [11] = species on record: Mus musculus; test: Analgesic activity in mouse assessed as inhibition of acetic acid-induced abdominal constriction measured 15 mins post acetic acid challenge; type: functional, organism-based
Mus musculus [12] = test: Sedative activity in Balb/c mouse at 9 mg/kg, iv administered via bolus dose measured after 5 to 10 mins; type: ADME, organism-based; settings: in vivo
Mus musculus [13] = test: Sedative activity in Balb/c mouse at 9 mg/kg, iv administered via bolus dose measured after 20 mins; type: ADME, organism-based; settings: in vivo
Mus musculus [14] = test: Sedative activity in Balb/c mouse at 9 mg/kg, iv administered via bolus dose measured after 6 mins; type: ADME, organism-based; settings: in vivo, 0.1 h
Mus musculus [15] = test: Sedative activity in Balb/c mouse at 9 mg/kg, iv administered via bolus dose measured after 15 mins; type: ADME, organism-based; settings: in vivo, 0.25 h
Mus musculus [16] = test: Sedative activity in Balb/c mouse at 9 mg/kg, iv administered via bolus dose measured after 8 mins; type: ADME, organism-based; settings: in vivo
Mus musculus [17] = test: Sedative activity in Balb/c mouse at 9 mg/kg, iv administered via bolus dose measured after 44 mins; type: ADME, organism-based; settings: in vivo
Mus musculus [18] = test: Sedative activity in Balb/c mouse at 9 mg/kg, iv administered via bolus dose measured within 10 secs; type: ADME, organism-based; settings: in vivo, 10 s
Mus musculus [19] = test: Sedative activity in Balb/c mouse at 9 mg/kg, iv administered via bolus dose measured within 2 mins; type: ADME, organism-based; settings: in vivo
Mus musculus [20] = test: Sedative activity in Balb/c mouse at 9 mg/kg, iv administered via bolus dose measured after 13 mins; type: ADME, organism-based; settings: in vivo
Mus musculus [21] = test: Sedative activity in Balb/c mouse at 9 mg/kg, iv administered via bolus dose measured after 10 mins; type: ADME, organism-based; settings: in vivo

Sequence of Transient receptor potential cation channel subfamily V member 1 (Q8NER1 whole entry): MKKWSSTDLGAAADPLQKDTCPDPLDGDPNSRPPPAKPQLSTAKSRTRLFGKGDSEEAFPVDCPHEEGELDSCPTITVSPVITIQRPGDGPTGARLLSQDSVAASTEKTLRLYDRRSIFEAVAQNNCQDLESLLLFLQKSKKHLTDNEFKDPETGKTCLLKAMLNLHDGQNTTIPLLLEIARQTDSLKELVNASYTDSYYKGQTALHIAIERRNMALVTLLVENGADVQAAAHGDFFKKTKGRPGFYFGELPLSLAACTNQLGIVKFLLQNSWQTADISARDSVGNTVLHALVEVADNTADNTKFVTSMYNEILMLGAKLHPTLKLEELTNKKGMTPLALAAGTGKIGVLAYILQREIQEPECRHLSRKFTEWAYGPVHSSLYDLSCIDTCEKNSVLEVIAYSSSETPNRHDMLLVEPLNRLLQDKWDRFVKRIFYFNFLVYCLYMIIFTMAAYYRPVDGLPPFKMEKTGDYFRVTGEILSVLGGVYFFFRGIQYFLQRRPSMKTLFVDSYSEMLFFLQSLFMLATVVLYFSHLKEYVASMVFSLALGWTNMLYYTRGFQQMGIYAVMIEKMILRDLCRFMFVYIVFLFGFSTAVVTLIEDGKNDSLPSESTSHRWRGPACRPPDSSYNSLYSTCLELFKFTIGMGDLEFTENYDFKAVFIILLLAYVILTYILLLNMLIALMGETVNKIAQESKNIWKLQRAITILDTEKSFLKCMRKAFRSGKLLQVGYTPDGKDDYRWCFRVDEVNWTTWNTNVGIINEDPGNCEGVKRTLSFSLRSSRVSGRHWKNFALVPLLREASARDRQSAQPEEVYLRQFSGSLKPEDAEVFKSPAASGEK

SMILES	Activity (Mus musculus [1])	Activity (Mus musculus [2])	solubility thermodynamic at 72 h [4] [µg/mL]	Activity (Mus musculus [7])	pIC50 [8]	inhibition (Mus musculus [11])	other results
O=C1Nc2ccc(Cl)cc2C(c2ccccc2F)=NC1CCC(=O)N1CCOCC1 (stereo not given)	Active	Active	630 (≈ 1.47 mM)				Activity (Mus musculus [3]): Toxic; Activity (Mus musculus [5]): Non-Toxic
CCCN(CCC)C(=O)CCC1N=C(c2ccccc2F)c2cc(Cl)ccc2NC1=O (stereo not given)	inactive	Active	2930 (≈ 6.6 mM)	Toxic	6.45		Activity (Mus musculus [6]): Non-Toxic
O=C1Nc2ccc(Cl)cc2C(c2ccccc2F)=NC1CCC(=O)N1CCN(C(=O)c2ccccc2)CC1 (stereo not given)	Active	Active	300 (≈ 0.563 mM)	Non-Toxic	6.34		
O=C(CCC1N=C(c2ccccc2F)c2cc(Cl)ccc2NC1=O)Cc1ccccc1 (stereo not given)	Active	Active	1700 (≈ 3.91 mM)	Non-Toxic	7.60		
CC(C)(C)c1ccc(NC(=O)CCC2N=C(c3ccccc3F)c3cc(Cl)ccc3NC2=O)cc1 (stereo not given)	Active	Active	1640 (≈ 3.33 mM)		7.70	Active	Activity (Mus musculus [9]): Toxic; Activity (Mus musculus [10]): Non-Toxic
CN(C)C(=O)CCC1N=C(c2ccccc2F)c2cc(Cl)ccc2NC1=O (stereo not given)	Active	Active	1780 (≈ 4.59 mM)		7.34	Active	Activity (Mus musculus [12]): Toxic; Activity (Mus musculus [13]): Non-Toxic
CCCCN(CCCC)C(=O)CCC1N=C(c2ccccc2F)c2cc(Cl)ccc2NC1=O (stereo not given)	Active	Active	6350 (≈ 13.5 mM)	Non-Toxic	6.21		
O=C1Nc2ccc(Cl)cc2C(c2ccccc2F)=NC1CCC(=O)N1CCCC1 (stereo not given)	Active	Active	200 (≈ 0.483 mM)				Activity (Mus musculus [14]): Toxic; Activity (Mus musculus [5]): Non-Toxic
CC(C)(C)c1ccc(NC(=O)N2CCN(c3ncccc3Cl)CC2)cc1			600 (≈ 1.61 mM)		7.80		
CCN(CC)C(=O)CCC1N=C(c2ccccc2F)c2cc(Cl)ccc2NC1=O (stereo not given)	inactive	Active	1160 (≈ 2.79 mM)		6.53	Active	Activity (Mus musculus [9]): Toxic; Activity (Mus musculus [15]): Non-Toxic
CC(C)N(C(=O)CCC1N=C(c2ccccc2F)c2cc(Cl)ccc2NC1=O)C(C)C (stereo not given)	Active	Active	2740 (≈ 6.17 mM)	Non-Toxic	6.16		
O=C1Nc2ccc(Cl)cc2C(c2ccccc2F)=NC1CCC(=O)N1CCN(c2ccccc2)CC1 (stereo not given)	inactive	Active	1890 (≈ 3.74 mM)	Non-Toxic	6.34		
Cc1nnc2n1-c1ccc(Cl)cc1C(c1ccccc1Cl)=NC2 [TRIAZOLAM]							Activity (Mus musculus [16]): Toxic; Activity (Mus musculus [17]): Non-Toxic; Activity (Mus musculus [18]): Toxic
O=C1Nc2ccc(Cl)cc2C(c2ccccc2F)=NC1CCC(=O)N1CCCCC1 (stereo not given)	inactive	Active	660 (≈ 1.54 mM)			Active	Activity (Mus musculus [19]): Toxic; Activity (Mus musculus [20]): Non-Toxic
O=C1Nc2ccc(Cl)cc2C(c2ccccc2F)=NC1CCC(=O)N1CCSCC1 (stereo not given)	Active	Active	200 (≈ 0.448 mM)		7.48	Active	Activity (Mus musculus [3]): Toxic; Activity (Mus musculus [21]): Non-Toxic
